Legend:
[1] = compared with 14-membered ring macrolide antibiotics; stated without a test; cited from earlier work
[2] = tested on: biofilm formed by periodontal pathogens; assay: biofilm destruction ratio on a preformed biofilm in a glass vessel; format: cell-based, periodontal pathogens (gram-negative bacteria); conditions: 1 mg in 100 ml distilled water; biofilm formed for 24 hours; read after 24 hours; relative to distilled water alone; FIG. 1
Procedure: Periodontal pathogens were put in a glass vessel and left for 24 hours to form a biofilm. Then, a solution of a biofilm removing agent containing 1 mg of azithromycin as a medical agent dissolved in 100 ml of distilled water was supplied into the glass vessel. After lapse of 24 hours, a destruction ratio of the biofilm formed by the periodontal pathogens was examined. Further, the biofilm destruction ratio of the biofilm removing agent containing azithromycin according to this invention was evaluated in comparison with the biofilm destruction ratio of each of minocycline, erythromycin, and josamycin. Specifically, each of minocycline, erythromycin, and josamycin was supplied together with distilled water into a glass vessel in which the biofilm was formed. After lapse of 24 hours, the destruction ratio of the biofilm formed by the periodontal pathogens was examined. The content of each of minocycline, erythromycin, and josamycin in the distilled water was equal to that of the biofilm removing agent containing azithromycin. […] In FIG. 1, the biofilm destruction ratio by each of azithromycin, minocycline, erythromycin, and josamycin is a ratio of a destroyed or lost part of the biofilm with respect to a biofilm formed by the periodontal pathogens and supplied with distilled water alone without any antibiotic.

[3] = tested on: hepatic metabolic enzymes; conditions: compared with 14-membered ring macrolide antibiotics; stated without a test; cited from earlier work
[4] = compared with 14-membered ring macrolide antibiotics; stated without a test; cited from earlier work; remark: listed apart in the source
[5] = tested on: biofilm formed by periodontal pathogens; assay: biofilm inhibition ratio (inhibiting formation of the biofilm) in a glass vessel; format: cell-based, periodontal pathogens (gram-negative bacteria); conditions: 1 mg in 100 ml distilled water, added together with the pathogens; read after 24 hours; relative to distilled water alone; FIG. 2
Procedure: Periodontal pathogens were put in a glass vessel together with a biofilm removing agent containing 1 mg of azithromycin as a medical agent dissolved in 100 ml of distilled water. After lapse of 24 hours, an inhibition ratio of the biofilm to be formed by the periodontal pathogens was examined.
Further, the biofilm inhibition ratio of the biofilm removing agent containing azithromycin according to this invention was evaluated in comparison with the biofilm inhibition ration of each of minocycline, erythromycin, and josamycin. Specifically, each of minocycline, erythromycin, and josamycin was put into a glass vessel together with periodontal pathogens and distilled water. After lapse of 24 hours, the biofilm inhibition ratio of the biofilm formed by the periodontal pathogens was examined.
The content of each of minocycline, erythromycin, and josamycin in the distilled water was equal to that of the biofilm removing agent containing azithromycin.
In FIG. 2, the biofilm inhibition ratio of each of azithromycin, minocycline, erythromycin, and josamycin is a ratio of a part without the biofilm with respect to an entire biofilm formed by the periodontal pathogens in presence of distilled water alone without any antibiotic.

CC[C@H]1OC(=O)[C@H](C)[C@@H](O[C@H]2C[C@@](C)(OC)[C@@H](O)[C@H](C)O2)[C@H](C)[C@@H](O[C@@H]2O[C@H](C)C[C@H](N(C)C)[C@H]2O)[C@](C)(O)C[C@@H](C)CN(C)[C@H](C)[C@@H](O)[C@]1(C)O [azithromycin]
digestive side effect [1]: equivalent
biofilm destruction ratio (destruction ratio of gram-negative bacteria) [2]: about 60%
activation of hepatic metabolic enzymes [3]: extremely small level
stability against gastric acid [4]: considerably stable
biofilm inhibition ratio (adhesion prevention ratio of gram-negative bacteria) [5]: about 45%

CC[C@H]1OC(=O)[C@H](C)[C@@H](O[C@H]2C[C@@](C)(OC)[C@@H](O)[C@H](C)O2)[C@H](C)[C@@H](O[C@@H]2O[C@H](C)C[C@H](N(C)C)[C@H]2O)[C@](C)(O)C[C@@H](C)C(=O)[C@H](C)[C@@H](O)[C@]1(C)O [erythromycin]
biofilm destruction ratio (destruction ratio of gram-negative bacteria) [2]: about 35%
biofilm inhibition ratio (adhesion prevention ratio of gram-negative bacteria) [5]: about 40%

CO[C@@H]1[C@@H](O[C@@H]2O[C@H](C)[C@@H](O[C@H]3C[C@@](C)(O)[C@@H](OC(=O)CC(C)C)[C@H](C)O3)[C@H](N(C)C)[C@H]2O)[C@@H](CC=O)C[C@@H](C)[C@@H](O)/C=C/C=C/C[C@@H](C)OC(=O)C[C@H]1OC(C)=O [josamycin]
biofilm destruction ratio (destruction ratio of gram-negative bacteria) [2]: about 25%
biofilm inhibition ratio (adhesion prevention ratio of gram-negative bacteria) [5]: about 35%

CN(C)c1ccc(O)c2c1C[C@H]1C[C@H]3[C@H](N(C)C)C(O)=C(C(N)=O)C(=O)[C@@]3(O)C(O)=C1C2=O [minocycline]
biofilm destruction ratio (destruction ratio of gram-negative bacteria) [2]: about 10%
biofilm inhibition ratio (adhesion prevention ratio of gram-negative bacteria) [5]: about 23%

— US20060263305A1, “Biofilm removing agent for removing a biofilm” (priority 2003, published 2006)
